Experimental data reported in paper PMC8037182, “Solvothermal Synthesis of Multiple Dihydropyrimidinones at a Time as Inhibitors of Eg5” (Molecules, 2021).

Tested on: Hela cell line
Assay: Cytotoxicity MTS assay, Hela cell line
Type: cell-based
Details: for OD490 Mean / OD490 Well 1 / OD490 Well 2 / OD490 Well 3: Hela cell line; for IC50: MTS assay, 24 h exposure
Procedure, shortened: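 MTS read-out (absorbance 490 nm after 2 h reagent at 37 °C) following 24 h compound exposure at 0.5–100 µM final, 0.025% DMSO as blank. Plated at 1000 cells/well and pre-incubated 24 h; IC50 derived by non-linear regression of viability against concentration, from three independent duplicate runs.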

COC(=O)c1[nH]c(C2NC(=S)NC(C)=C2C(=O)c2ccccc2)c(C(=O)OC)c1C (stereo not drawn) [D14]
OD490 Mean (0.5μM, first assay): 2.3692 | OD490 Well 1 (0.5μM, first assay): 2.2024 | OD490 Well 2 (0.5μM, first assay): 2.5165 | OD490 Well 3 (0.5μM, first assay): 2.3887 | OD490 Mean (0.5μM, second assay): 2.4577 | OD490 Well 1 (0.5μM, second assay): 2.5398 | OD490 Well 2 (0.5μM, second assay): 2.4478 | OD490 Well 3 (0.5μM, second assay): 2.3854 | OD490 Mean (0.5μM, third assay): 2.5210 | OD490 Well 1 (0.5μM, third assay): 2.5365 | OD490 Well 2 (0.5μM, third assay): 2.6899 | OD490 Well 3 (0.5μM, third assay): 2.3365 | OD490 Mean (1μM, first assay): 2.4838 | OD490 Well 1 (1μM, first assay): 2.3561 | OD490 Well 2 (1μM, first assay): 2.5456 | OD490 Well 3 (1μM, first assay): 2.5498 | OD490 Mean (1μM, second assay): 2.4907 | OD490 Well 1 (1μM, second assay): 2.5353 | OD490 Well 2 (1μM, second assay): 2.4889 | OD490 Well 3 (1μM, second assay): 2.4478 | OD490 Mean (1μM, third assay): 2.5269 | OD490 Well 1 (1μM, third assay): 2.4563 | OD490 Well 2 (1μM, third assay): 2.5587 | OD490 Well 3 (1μM, third assay): 2.5656 | OD490 Mean (10μM, first assay): 2.5226 | OD490 Well 1 (10μM, first assay): 2.5006 | OD490 Well 2 (10μM, first assay): 2.6290 | OD490 Well 3 (10μM, first assay): 2.4381 | OD490 Mean (10μM, second assay): 2.5413 | OD490 Well 1 (10μM, second assay): 2.4987 | OD490 Well 2 (10μM, second assay): 2.5687 | OD490 Well 3 (10μM, second assay): 2.5565 | OD490 Mean (10μM, third assay): 2.5164 | OD490 Well 1 (10μM, third assay): 2.5321 | OD490 Well 2 (10μM, third assay): 2.4598 | OD490 Well 3 (10μM, third assay): 2.5574 | OD490 Mean (25μM, first assay): 2.4708 | OD490 Well 1 (25μM, first assay): 2.2633 | OD490 Well 2 (25μM, first assay): 2.6154 | OD490 Well 3 (25μM, first assay): 2.5338 | OD490 Mean (25μM, second assay): 2.5615 | OD490 Well 1 (25μM, second assay): 2.5835 | OD490 Well 2 (25μM, second assay): 2.5478 | OD490 Well 3 (25μM, second assay): 2.5532 | OD490 Mean (25μM, third assay): 2.4824 | OD490 Well 1 (25μM, third assay): 2.3365 | OD490 Well 2 (25μM, third assay): 2.4587 | OD490 Well 3 (25μM, third assay): 2.6521 | OD490 Mean (50μM, first assay): 2.7660 | OD490 Well 1 (50μM, first assay): 2.6176 | OD490 Well 2 (50μM, first assay): 2.8052 | OD490 Well 3 (50μM, first assay): 2.8752 | OD490 Mean (50μM, second assay): 2.6584 | OD490 Well 1 (50μM, second assay): 2.6324 | OD490 Well 2 (50μM, second assay): 2.5687 | OD490 Well 3 (50μM, second assay): 2.7741 | OD490 Mean (50μM, third assay): 2.5680 | OD490 Well 1 (50μM, third assay): 2.5574 | OD490 Well 2 (50μM, third assay): 2.4768 | OD490 Well 3 (50μM, third assay): 2.6698 | OD490 Mean (100μM, first assay): 2.5211 | OD490 Well 1 (100μM, first assay): 2.7163 | OD490 Well 2 (100μM, first assay): 2.4550 | OD490 Well 3 (100μM, first assay): 2.3919 | OD490 Mean (100μM, second assay): 2.5251 | OD490 Well 1 (100μM, second assay): 2.6987 | OD490 Well 2 (100μM, second assay): 2.4465 | OD490 Well 3 (100μM, second assay): 2.4301 | OD490 Mean (100μM, third assay): 2.6068 | OD490 Well 1 (100μM, third assay): 2.6689 | OD490 Well 2 (100μM, third assay): 2.5641 | OD490 Well 3 (100μM, third assay): 2.5874 | IC50: > 150 µM

CCOC(=O)C1=C(C)NC(=S)NC1c1cccc(O)c1 (stereo not drawn) [Monastrol, monastrol, reference compound]
OD490 Mean (0.5μM, first assay): 2.4571 | OD490 Well 1 (0.5μM, first assay): 2.3556 | OD490 Well 2 (0.5μM, first assay): 2.5698 | OD490 Well 3 (0.5μM, first assay): 2.4458 | OD490 Mean (0.5μM, second assay): 2.6032 | OD490 Well 1 (0.5μM, second assay): 2.5874 | OD490 Well 2 (0.5μM, second assay): 2.6523 | OD490 Well 3 (0.5μM, second assay): 2.5698 | OD490 Mean (0.5μM, third assay): 2.6247 | OD490 Well 1 (0.5μM, third assay): 2.6417 | OD490 Well 2 (0.5μM, third assay): 2.5470 | OD490 Well 3 (0.5μM, third assay): 2.6854 | OD490 Mean (1μM, first assay): 2.1630 | OD490 Well 1 (1μM, first assay): 2.3365 | OD490 Well 2 (1μM, first assay): 2.0131 | OD490 Well 3 (1μM, first assay): 2.1393 | OD490 Mean (1μM, second assay): 2.5460 | OD490 Well 1 (1μM, second assay): 2.5687 | OD490 Well 2 (1μM, second assay): 2.5478 | OD490 Well 3 (1μM, second assay): 2.5214 | OD490 Mean (1μM, third assay): 2.5064 | OD490 Well 1 (1μM, third assay): 2.5748 | OD490 Well 2 (1μM, third assay): 2.5214 | OD490 Well 3 (1μM, third assay): 2.4230 | OD490 Mean (10μM, first assay): 2.2162 | OD490 Well 1 (10μM, first assay): 2.1607 | OD490 Well 2 (10μM, first assay): 2.2561 | OD490 Well 3 (10μM, first assay): 2.2317 | OD490 Mean (10μM, second assay): 2.5812 | OD490 Well 1 (10μM, second assay): 2.6541 | OD490 Well 2 (10μM, second assay): 2.5541 | OD490 Well 3 (10μM, second assay): 2.5354 | OD490 Mean (10μM, third assay): 2.5198 | OD490 Well 1 (10μM, third assay): 2.6510 | OD490 Well 2 (10μM, third assay): 2.2561 | OD490 Well 3 (10μM, third assay): 2.6524 | OD490 Mean (25μM, first assay): 2.2546 | OD490 Well 1 (25μM, first assay): 2.1835 | OD490 Well 2 (25μM, first assay): 2.2875 | OD490 Well 3 (25μM, first assay): 2.2928 | OD490 Mean (25μM, second assay): 2.5253 | OD490 Well 1 (25μM, second assay): 2.6854 | OD490 Well 2 (25μM, second assay): 2.3365 | OD490 Well 3 (25μM, second assay): 2.5541 | OD490 Mean (25μM, third assay): 2.5000 | OD490 Well 1 (25μM, third assay): 2.5874 | OD490 Well 2 (25μM, third assay): 2.2584 | OD490 Well 3 (25μM, third assay): 2.6541 | OD490 Mean (50μM, first assay): 2.5586 | OD490 Well 1 (50μM, first assay): 2.7188 | OD490 Well 2 (50μM, first assay): 2.4306 | OD490 Well 3 (50μM, first assay): 2.5263 | OD490 Mean (50μM, second assay): 2.4511 | OD490 Well 1 (50μM, second assay): 2.3541 | OD490 Well 2 (50μM, second assay): 2.5478 | OD490 Well 3 (50μM, second assay): 2.4514 | OD490 Mean (50μM, third assay): 2.6173 | OD490 Well 1 (50μM, third assay): 2.5412 | OD490 Well 2 (50μM, third assay): 2.6521 | OD490 Well 3 (50μM, third assay): 2.6587 | OD490 Mean (100μM, first assay): 2.2182 | OD490 Well 1 (100μM, first assay): 2.3464 | OD490 Well 2 (100μM, first assay): 2.1470 | OD490 Well 3 (100μM, first assay): 2.1612 | OD490 Mean (100μM, second assay): 2.5306 | OD490 Well 1 (100μM, second assay): 2.4236 | OD490 Well 2 (100μM, second assay): 2.6540 | OD490 Well 3 (100μM, second assay): 2.5142 | OD490 Mean (100μM, third assay): 2.4597 | OD490 Well 1 (100μM, third assay): 2.3654 | OD490 Well 2 (100μM, third assay): 2.5784 | OD490 Well 3 (100μM, third assay): 2.4352 | IC50 (Homo sapiens, HeLa, 24 h): > 150 µM | IC50: > 150 µM
